# Laboratory results as given in paper PMC5909127, “Optimization of a “bump-and-hole” approach to allele-selective BET bromodomain inhibition” (Chemical Science, 2018).
# Key:
# BRD2 BD1 L/V [1] = molecular target: T1, BRD2 BD1 L/V (Homo sapiens, UniProt P25440, L110V); test: competitive AlphaLISA; type: binding
# [2] = tested on: L/V BET bromodomains (BD1 and BD2 of BRD2, BRD3 and BRD4); test: competitive AlphaLISA (Bio-JQ1 displacement); type: binding, human; settings: for AlphaLISA pIC50 ± SD Δ: L/V minus WT; for AlphaLISA pIC50 ± SD L/V: mean and SD of all somatic bromodomains, active enantiomer concentration
# BRD4 BD1 L/V [3] = molecular target: T2, BRD4 BD1 L/V (Homo sapiens, UniProt O60885, L94V); test: ITC; type: binding; settings: for Kd: Kd BRD4 BD1 L/V
# BRD4 BD2 L/V [4] = molecular target: T3, BRD4 BD2 L/V (Homo sapiens, UniProt O60885, L387V); test: competitive AlphaLISA; type: binding
# BRD3 BD2 L/V [5] = molecular target: T4, BRD3 BD2 L/V (Homo sapiens, UniProt Q15059, L345V); test: competitive AlphaLISA; type: binding
# T4 sequence (Q15059 306-416 L345V limits assumed): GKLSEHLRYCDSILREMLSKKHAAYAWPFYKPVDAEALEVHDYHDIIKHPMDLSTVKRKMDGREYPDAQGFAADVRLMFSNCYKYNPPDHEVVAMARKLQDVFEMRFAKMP
# BRD2 BD2 L/V [6] = molecular target: T5, BRD2 BD2 L/V (Homo sapiens, UniProt P25440, L383V); test: ITC; type: binding
# T5 sequence (P25440 344-455 L383V): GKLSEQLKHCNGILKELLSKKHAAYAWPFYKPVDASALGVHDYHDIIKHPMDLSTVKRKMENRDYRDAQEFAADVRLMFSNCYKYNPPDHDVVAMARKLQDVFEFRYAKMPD
# BRD4 BD1 WT [7] = molecular target: T6, BRD4 BD1 WT (Homo sapiens, UniProt O60885); test: ITC; type: binding
# BRDT BD2 L/V = BRDT BD2 L/V (Homo sapiens, UniProt Q58F21, L306V); test: competitive AlphaLISA; type: binding
# BRD3 BD1 L/V [8] = molecular target: T7, BRD3 BD1 L/V (Homo sapiens, UniProt Q15059, L70V); test: ITC; type: binding
# T7 sequence (Q15059 24-144 L70V limits assumed): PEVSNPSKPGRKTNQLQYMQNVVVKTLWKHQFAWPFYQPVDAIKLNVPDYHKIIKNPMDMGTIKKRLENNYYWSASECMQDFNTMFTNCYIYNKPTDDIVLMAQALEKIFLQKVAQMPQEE
# BRD4 BD1 L/V [9] = molecular target: T2, BRD4 BD1 L/V; test: competitive AlphaLISA; type: binding
# BRD4 BD2 WT [10] = molecular target: T8, BRD4 BD2 WT (Homo sapiens, UniProt O60885); test: competitive AlphaLISA; type: binding
# BRD3 BD2 WT [11] = molecular target: T9, BRD3 BD2 WT (Homo sapiens, UniProt Q15059); test: ITC; type: binding
# T9 sequence (Q15059 306-416): as the sequence (Q15059 306-416 L345V limits assumed) above, with V40L counted along it
# BRD2 BD1 L/V [12] = molecular target: T1, BRD2 BD1 L/V; test: ITC; type: binding
# BRD4 BD2 WT [13] = molecular target: T8, BRD4 BD2 WT; test: ITC; type: binding
# BRDT BD1 L/V = BRDT BD1 L/V (Homo sapiens, UniProt Q58F21, L63V); test: competitive AlphaLISA; type: binding
# BRD2 BD2 WT [14] = molecular target: T10, BRD2 BD2 WT (Homo sapiens, UniProt P25440); test: competitive AlphaLISA; type: binding
# T10 sequence (P25440 344-455): as the sequence (P25440 344-455 L383V) above, with V40L counted along it
# BRDT BD1 WT = BRDT BD1 WT (Homo sapiens, UniProt Q58F21); test: competitive AlphaLISA; type: binding
# BRD2 BD2 L/V [15] = molecular target: T5, BRD2 BD2 L/V; test: competitive AlphaLISA; type: binding
# Plasma Half-life = settings: BALB/c, mouse, pH 7.4
# BRD3 BD2 L/V [16] = molecular target: T4, BRD3 BD2 L/V; test: ITC; type: binding
# Intrinsic Clearance = settings: mouse liver microsomes
# BRD2 BD1 WT [17] = molecular target: T11, BRD2 BD1 WT (Homo sapiens, UniProt P25440); test: competitive AlphaLISA; type: binding
# T11 sequence (P25440 71-176): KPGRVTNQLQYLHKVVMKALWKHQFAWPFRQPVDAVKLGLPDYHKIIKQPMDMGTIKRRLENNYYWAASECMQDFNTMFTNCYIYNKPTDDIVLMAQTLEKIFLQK
# in vitro = settings: PAMPA, pH 7.4
# BRD3 BD1 L/V [18] = molecular target: T7, BRD3 BD1 L/V; test: competitive AlphaLISA; type: binding
# BRD3 BD2 WT [19] = molecular target: T9, BRD3 BD2 WT; test: competitive AlphaLISA; type: binding
# [20] = molecular target: WT BET bromodomains (BD1 and BD2 of BRD2, BRD3 and BRD4); test: competitive AlphaLISA (Bio-JQ1 displacement); type: binding, human; settings: mean and SD of all somatic bromodomains; active enantiomer concentration
# BRD3 BD1 WT [21] = molecular target: T12, BRD3 BD1 WT (Homo sapiens, UniProt Q15059); test: competitive AlphaLISA; type: binding
# T12 sequence (Q15059 24-144): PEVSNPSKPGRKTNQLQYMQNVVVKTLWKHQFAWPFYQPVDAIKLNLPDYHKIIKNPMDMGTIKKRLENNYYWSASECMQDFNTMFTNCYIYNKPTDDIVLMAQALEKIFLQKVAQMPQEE
# BRD4 BD1 WT [22] = molecular target: T6, BRD4 BD1 WT; test: competitive AlphaLISA; type: binding
# BRD4 BD2 L/V [23] = molecular target: T3, BRD4 BD2 L/V; test: ITC; type: binding
# BRD2 BD1 WT [24] = molecular target: T11, BRD2 BD1 WT; test: ITC; type: binding
# [25] = molecular target: WT somatic BET bromodomains; test: ITC; settings: mean and SD of all somatic bromodomains
# [26] = tested on: L/V somatic BET bromodomains; test: ITC; settings: for ITC pKd ± SD Δ: L/V minus WT
# BRDT BD2 WT = BRDT BD2 WT (Homo sapiens, UniProt Q58F21); test: competitive AlphaLISA; type: binding
# BRD2 BD2 WT [27] = molecular target: T10, BRD2 BD2 WT; test: ITC; type: binding
# BRD3 BD1 WT [28] = molecular target: T12, BRD3 BD1 WT; test: ITC; type: binding
# [29] = AlphaLISA pIC50 Value BRD4 BD1 L/V
# [30] = AlphaLISA pIC50 Value BRD4 BD1 WT
# T1 sequence (P25440 71-176 L110V limits assumed): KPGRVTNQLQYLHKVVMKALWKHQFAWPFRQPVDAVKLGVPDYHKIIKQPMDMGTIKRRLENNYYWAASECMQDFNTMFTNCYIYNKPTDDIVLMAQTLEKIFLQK
compound,measurement,setting,value
CCNC(=O)[C@H](C)[C@@H]1N=C(c2ccc(Cl)cc2)c2ccc(OC)cc2-n2c(C)nnc21 (relative stereo) [Compound 21],IC50,BRD2 BD1 L/V [1],2 µM
same,AlphaLISA pIC50 ± SD Δ,[2],1.3 ± 0.2
same,AlphaLISA pIC50 ± SD L/V,[2],6.0 ± 0.2
same,ΔH BRD4 BD1 L/V,BRD4 BD1 L/V [3]; ITC,-5.9 kcal/mol
same,N BRD4 BD1 L/V,BRD4 BD1 L/V [3]; ITC stoichiometry,0.88
same,Kd,"BRD4 BD1 L/V [3]; ITC, 30°C",0.37 µM
same,IC50,BRD4 BD2 L/V [4],1.26 µM
same,IC50,BRD3 BD2 L/V [5],0.501 µM
same,Kd,BRD2 BD2 L/V [6],0.23 µM
same,ΔH BRD2 BD2 L/V,BRD2 BD2 L/V [6]; ITC,-4.8 kcal/mol
same,N BRD2 BD2 L/V,BRD2 BD2 L/V [6]; ITC stoichiometry,0.84
same,Kd,BRD4 BD1 WT [7],39 µM
same,ΔH BRD4 BD1 WT,BRD4 BD1 WT [7]; ITC,-3.3 kcal/mol
same,IC50,BRDT BD2 L/V,1.58 µM
same,Kd,BRD3 BD1 L/V [8],0.41 µM
same,ΔH BRD3 BD1 L/V,BRD3 BD1 L/V [8]; ITC,-10.7 kcal/mol
same,N BRD3 BD1 L/V,BRD3 BD1 L/V [8]; ITC stoichiometry,0.92
same,IC50,BRD4 BD1 L/V [9]; [29],1 µM
same,IC50,BRD4 BD2 WT [10],31.6 µM
same,Kd,BRD3 BD2 WT [11],11 µM
same,ΔH BRD3 BD2 WT,BRD3 BD2 WT [11]; ITC,-4.5 kcal/mol
same,N BRD3 BD2 WT,BRD3 BD2 WT [11]; ITC stoichiometry,0.46
same,Kd,BRD2 BD1 L/V [12],0.99 µM
same,ΔH BRD2 BD1 L/V,BRD2 BD1 L/V [12]; ITC,-8.8 kcal/mol
same,N BRD2 BD1 L/V,BRD2 BD1 L/V [12]; ITC stoichiometry,0.97
same,Kd,BRD4 BD2 WT [13],> 60 µM
same,IC50,BRDT BD1 L/V,2.51 µM
same,IC50,BRD2 BD2 WT [14],15.8 µM
same,IC50,BRDT BD1 WT,50.1 µM
same,IC50,BRD2 BD2 L/V [15],1 µM
same,half-life at 50 µM,Plasma Half-life,> 3 h
same,Kd,BRD3 BD2 L/V [16],0.8 µM
same,ΔH BRD3 BD2 L/V,BRD3 BD2 L/V [16]; ITC,-6.7 kcal/mol
same,N BRD3 BD2 L/V,BRD3 BD2 L/V [16]; ITC stoichiometry,0.90
same,CL int,Intrinsic Clearance,1.5 ml min^–1 g^–1
same,IC50,BRD2 BD1 WT [17],39.8 µM
same,Papp,in vitro,4 ×10⁻⁶ cm/s
same,IC50,BRD3 BD1 L/V [18],0.501 µM
same,IC50,BRD3 BD2 WT [19],15.8 µM
same,AlphaLISA pIC50 ± SD WT,[20],4.7 ± 0.3
same,IC50,BRD3 BD1 WT [21],5.01 µM
same,IC50,BRD4 BD1 WT [22]; [30],25.1 µM
same,Kd,BRD4 BD2 L/V [23],0.32 µM
same,ΔH BRD4 BD2 L/V,BRD4 BD2 L/V [23]; ITC,-4.4 kcal/mol
same,N BRD4 BD2 L/V,BRD4 BD2 L/V [23]; ITC stoichiometry,1.06
same,Kd,BRD2 BD1 WT [24],> 60 µM
same,ITC pKd ± SD WT,[25],4.5 ± 0.4
same,ITC pKd ± SD Δ,[26],1.8 ± 0.5
same,ITC pKd ± SD L/V,[26]; mean and SD of all somatic bromodomains,6.3 ± 0.2
same,IC50,BRDT BD2 WT,25.1 µM
COC(=O)[C@H](C)[C@@H]1N=C(c2ccc(Cl)cc2)c2ccc(OC)cc2-n2c(C)nnc21 (racemic) [Compound 7],Kd,BRD2 BD2 WT [27],> 60 µM
same,IC50,BRD2 BD1 L/V [1],0.2 µM
same,AlphaLISA pIC50 ± SD Δ,[2],1.4 ± 0.2
same,ΔH BRD4 BD1 L/V,"BRD4 BD1 L/V [3]; ITC, total compound concentration",-4.2 ± 0.0 kcal/mol
same,Kd,"BRD4 BD1 L/V [3]; ITC of separated enantiomers and racemates, total compound concentration",0.5 ± 0.05 µM
same,Kd,"BRD4 BD1 L/V [3]; ITC, 30°C",0.14 µM
same,IC50,BRD4 BD2 L/V [4],0.2 µM
same,IC50,BRD3 BD2 L/V [5],0.1 µM
same,Kd,BRD2 BD2 L/V [6],0.33 µM
same,Kd,BRD4 BD1 WT [7],28 µM
same,Kd,BRD3 BD1 L/V [8],0.14 µM
same,IC50,BRD4 BD1 L/V [9]; [29],0.2 µM
same,ΔpIC50 BRD4 BD1,"BRD4 BD1 L/V [9]; L/V minus WT, total compound concentration",1.4
same,IC50,"BRD4 BD1 L/V [9]; pIC50 BRD4 BD1 L/V, separated enantiomers test, total compound concentration",0.631 µM
same,IC50,BRD4 BD2 WT [10],6.31 µM
same,Kd,BRD2 BD1 L/V [12],0.31 µM
same,Kd,BRD4 BD2 WT [13],33 µM
same,IC50,BRDT BD1 L/V,0.251 µM
same,IC50,BRD2 BD2 WT [14],7.94 µM
same,IC50,BRDT BD1 WT,5.01 µM
same,IC50,BRD2 BD2 L/V [15],0.316 µM
same,half-life at 50 µM,Plasma Half-life,> 3 h
same,Kd,BRD3 BD2 L/V [16],0.23 µM
same,CL int,Intrinsic Clearance,<0.5 ml min^–1 g^–1
same,Kd,BRD3 BD1 WT [28],12 µM
same,IC50,BRD2 BD1 WT [17],3.16 µM
same,Papp,in vitro,15.8 ×10⁻⁶ cm/s
same,IC50,BRD3 BD1 L/V [18],0.1 µM
same,IC50,BRD3 BD2 WT [19],5.01 µM
same,AlphaLISA pIC50 ± SD WT,[20],5.4 ± 0.2
same,IC50,BRD3 BD1 WT [21],1.58 µM
same,IC50,BRD4 BD1 WT [22]; [30],3.16 µM
same,IC50,"BRD4 BD1 WT [22]; pIC50 BRD4 BD1 WT, separated enantiomers test, total compound concentration",12.6 µM
same,Kd,BRD4 BD2 L/V [23],0.98 µM
same,Kd,BRD2 BD1 WT [24],32 µM
same,ITC pKd ± SD Δ,[26],2.0 ± 0.4
same,IC50,BRDT BD2 WT,7.94 µM
C=CC[C@@H](C(=O)OC)[C@@H]1N=C(c2ccc(Cl)cc2)c2ccc(OC)cc2-n2c(C)nnc21 (relative stereo) [Compound 9],IC50,BRD2 BD1 L/V [1],3.98 µM
same,AlphaLISA pIC50 ± SD Δ,[2],1.3 ± 0.2
same,AlphaLISA pIC50 ± SD L/V,[2],5.7 ± 0.2
same,IC50,BRD4 BD2 L/V [4],3.16 µM
same,IC50,BRD3 BD2 L/V [5],1 µM
same,IC50,BRDT BD2 L/V,5.01 µM
same,IC50,BRD4 BD1 L/V [9]; [29],3.16 µM
same,IC50,BRD4 BD2 WT [10],63.1 µM
same,IC50,BRDT BD1 L/V,6.31 µM
same,IC50,BRD2 BD2 WT [14],39.8 µM
same,IC50,BRDT BD1 WT,63.1 µM
same,IC50,BRD2 BD2 L/V [15],1.26 µM
same,half-life at 50 µM,Plasma Half-life,> 3 h
same,CL int,Intrinsic Clearance,9.4 ml min^–1 g^–1
same,IC50,BRD2 BD1 WT [17],50.1 µM
same,Papp,in vitro,13.6 ×10⁻⁶ cm/s
same,IC50,BRD3 BD1 L/V [18],1.58 µM
same,IC50,BRD3 BD2 WT [19],50.1 µM
same,AlphaLISA pIC50 ± SD WT,[20],4.4 ± 0.1
same,IC50,BRD3 BD1 WT [21],31.6 µM
same,IC50,BRD4 BD1 WT [22]; [30],39.8 µM
same,IC50,BRDT BD2 WT,50.1 µM
